Measurements reported in article PMC10762035, “Molecular basis of human trace amine-associated receptor 1 activation” (Nature Communications, 2024).
Substitutions are numbered along the chain they refer to. “And” between values parts separate entries of the source, which are not always exact repeats. Equal entries are not always repeated. Where two headings read alike, the source gives them in different places.

Columns and labels:
Assay type in all cases: cell-based
hTA1 S107C = target: T1, hTA1 S107C (Homo sapiens, UniProt Q96RJ0, S107C); assay: GloSensor cAMP accumulation assay, S107C mutant;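 note: cells transiently co-expressing receptor and GloSensor biosensor, luminescence read after 30 min agonist exposure at room temperature, concentration-response fitted by nonlinear regression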
T1 construct: expressed in transfected cells; host or cells: HEK293T
T1 sequence (Q96RJ0 1-339 S107C): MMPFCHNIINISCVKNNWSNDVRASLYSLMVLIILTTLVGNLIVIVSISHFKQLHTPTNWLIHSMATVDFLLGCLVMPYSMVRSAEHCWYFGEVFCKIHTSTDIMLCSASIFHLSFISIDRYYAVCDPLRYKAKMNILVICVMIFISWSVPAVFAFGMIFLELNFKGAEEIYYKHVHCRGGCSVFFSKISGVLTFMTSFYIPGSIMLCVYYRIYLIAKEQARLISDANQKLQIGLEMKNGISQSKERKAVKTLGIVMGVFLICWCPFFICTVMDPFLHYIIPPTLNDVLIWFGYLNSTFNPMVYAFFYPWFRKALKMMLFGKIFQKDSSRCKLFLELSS

hTA1 V184P = target: T2, hTA1 V184P (Homo sapiens, UniProt Q96RJ0, V184P); assay: GloSensor cAMP accumulation assay, V184P mutant; conditions: for cAMP accumulation response, single replicate values (source data, Supplementary Figure 5): hTA1 V184P (N=2), log[Compound]
T2 construct: expressed in transfected cells; host or cells: HEK293T
T2 sequence (Q96RJ0 1-339 V184P): T1 sequence (Q96RJ0 1-339 S107C) with C107S, V184P

hTA1 b2N = target: T3, hTA1 b2N (Homo sapiens, UniProt Q96RJ0); assay: GloSensor cAMP accumulation assay, b2N construct
T3 construct: read by me as the first 25 residues of β2AR (N); expressed in transfected cells; host or cells: HEK293T

hTA1 C88S = target: T4, hTA1 C88S (Homo sapiens, UniProt Q96RJ0, C88S); assay: GloSensor cAMP accumulation assay, C88S mutant
T4 construct: expressed in transfected cells; host or cells: HEK293T
T4 sequence (Q96RJ0 1-339 C88S): T1 sequence (Q96RJ0 1-339 S107C) with C88S, C107S

hTA1 = target: T5, hTA1 (Homo sapiens, UniProt Q96RJ0); assay: GloSensor cAMP accumulation assay, concentration response, wild-type hTA1 in transfected HEK293T cells; conditions: for Emax: HEK-293T;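 for all read-outs here: luminescence read after 30 min compound exposure at room temperature in cells preloaded with D-Luciferin, reflecting Gs-driven cAMP rise, efficacy scaled to the maximal β-PEA response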
T5 construct: expressed in transfected cells; host or cells: HEK293T
T5 sequence (Q96RJ0 1-339): T1 sequence (Q96RJ0 1-339 S107C) with C107S

T3 sequence (Q96RJ0 with tags, fused parts or gaps): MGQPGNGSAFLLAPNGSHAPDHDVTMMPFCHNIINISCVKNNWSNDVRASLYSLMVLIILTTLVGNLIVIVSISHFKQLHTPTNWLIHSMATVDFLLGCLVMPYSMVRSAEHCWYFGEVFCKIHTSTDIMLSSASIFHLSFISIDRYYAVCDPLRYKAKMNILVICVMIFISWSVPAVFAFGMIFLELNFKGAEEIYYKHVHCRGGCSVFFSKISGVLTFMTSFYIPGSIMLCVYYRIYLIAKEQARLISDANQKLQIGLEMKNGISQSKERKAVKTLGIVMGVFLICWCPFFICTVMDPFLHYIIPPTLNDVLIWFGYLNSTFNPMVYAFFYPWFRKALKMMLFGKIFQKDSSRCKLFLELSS

## CCC(CC1COC(N)=N1)c1ccccc1 (centres unmarked) [Ro5256390]
hTA1 S107C; EC50, S107C, n=2
  EC50: 504 nM
hTA1 S107C; S107C
  decrease in potency vs wild type: approximately 100 fold
hTA1 S107C; S107C mutant minus WT average
  ΔEmax values (each mutant value - WT average): -34.2322
hTA1 S107C; S107C mutant, β-PEA = 100, each line an independent experiment, 3 replicates
  Emax values, Mean: 69.072 and 124.486
hTA1 S107C; read-out: Span ± SEM (Emax normalized to β-PEA), S107C, n=2
  Emax: 88.8 ± 19.8%
hTA1 V184P; M = -5
  cAMP accumulation response, single replicate values (source data, Supplementary Figure 5): 85.3904 and 101.684 and 66.3809 and 100.697 and 92.817 and 97.6917
hTA1 V184P; M = -5.522
  cAMP accumulation response, single replicate values (source data, Supplementary Figure 5): 66.0899 and 55.7123 and 71.6182 and 88.7852 and 51.5463 and 90.3979
hTA1 V184P; M = -6
  cAMP accumulation response, single replicate values (source data, Supplementary Figure 5): 83.0627 and 77.3404 and 73.6549 and 87.3191 and 55.1749 and 91.0943
hTA1 V184P; M = -6.522
  cAMP accumulation response, single replicate values (source data, Supplementary Figure 5): 79.7651 and 75.3037 and 85.0024 and 81.1248 and 49.1639 and 85.8896
hTA1 V184P; M = -7
  cAMP accumulation response, single replicate values (source data, Supplementary Figure 5): 89.6578 and 72.685 and 93.7313 and 87.2824 and 64.0448 and 74.7473
hTA1 V184P; M = -7.522
  cAMP accumulation response, single replicate values (source data, Supplementary Figure 5): 94.3132 and 66.4779 and 74.3338 and 84.4969 and 64.0814 and 78.046
hTA1 V184P; M = -8
  cAMP accumulation response, single replicate values (source data, Supplementary Figure 5): 62.0164 and 54.6454 and 40.6793 and 78.3026 and 66.3539 and 77.7161
hTA1 V184P; M = -8.522
  cAMP accumulation response, single replicate values (source data, Supplementary Figure 5): 37.1877 and 24.6764 and 37.2847 and 29.115 and 34.8328 and 41.87
hTA1 V184P; M = -9
  cAMP accumulation response, single replicate values (source data, Supplementary Figure 5): 15.9475 and 18.9541 and 11.3891 and 32.8169 and 25.9629 and 26.2194
hTA1 V184P; M = -9.522
  cAMP accumulation response, single replicate values (source data, Supplementary Figure 5): 4.018 and 3.436 and 4.212 and 11.3752 and 7.6 and 9.799
hTA1 V184P; M = -10
  cAMP accumulation response, single replicate values (source data, Supplementary Figure 5): 0.7205 and 0.9145 and 0.5265 and 3.678 and 2.945 and 4.778
hTA1 V184P; M = -10.522
  cAMP accumulation response, single replicate values (source data, Supplementary Figure 5): -0.3463 and -0.9283 and 0.2356 and 0.1229 and 0.08625 and 0.5627
hTA1 V184P; M = -11
  cAMP accumulation response, single replicate values (source data, Supplementary Figure 5): -1.316 (2×) and -1.4132 and 1.516 and -0.5368 and 1.039
hTA1 V184P; M = -11.522
  cAMP accumulation response, single replicate values (source data, Supplementary Figure 5): -1.51 and -1.219 and -1.704 and 2.615 and 1.516 and 1.552
hTA1 V184P; M = -12
  cAMP accumulation response, single replicate values (source data, Supplementary Figure 5): -1.316 and -1.51 and -1.801 and 15.6269 and 16.9097 and 12.5114
hTA1 V184P; M = -12.522
  cAMP accumulation response, single replicate values (source data, Supplementary Figure 5): -1.4132 and -1.51 and -0.9283 and 2.505 and 1.149 and 1.736
hTA1 V184P; hTA1 V184P mutant minus WT average
  ΔpEC50 values (each mutant value - WT average), Mean: 0.1338 and 0.2823
hTA1 V184P; hTA1 V184P mutant, β-PEA set to 100, each grid row a separate experiment, 3 replicates
  Emax values, Mean: 78.2024
hTA1 V184P; pEC50 values (Mean), hTA1 V184P mutant, Figure 3B source data, each grid row a separate experiment, 3 replicates
  EC50: 3.92 nM and 2.79 nM
hTA1 V184P; pEC50 ± SEM, V184P, n=2
  EC50: 3.31 nM
hTA1 V184P; read-out: Emax values (Mean), hTA1 V184P mutant, β-PEA set to 100, each grid row a separate experiment, 3 replicates
  Emax: 81.5%
hTA1 V184P; read-out: Span ± SEM (Emax normalized to β-PEA), V184P, n=2
  Emax: 79.8 ± 1.63%
hTA1 b2N
  EC50: 1.56 nM
hTA1 b2N; read-out: Span ± SEM (Emax normalized to β-PEA)
  Emax: 97.7 ± 9.34%
hTA1 C88S; C88S, Mean of fit per experiment
  Emax values: 141.143 and 102.28
hTA1 C88S; C88S, relative to β-PEA
  Emax: 122%
hTA1 C88S; pEC50 values, C88S, Mean of fit per experiment
  EC50: 3.91 nM and 2.46 nM
hTA1 C88S; pEC50 ± SEM, C88S, n=2
  EC50: 3.09 nM
hTA1 C88S; read-out: Span ± SEM (Emax normalized to β-PEA), C88S, n=2
  Emax: 122%
hTA1; EC50, wt hTA1, HEK293T, n=3
  EC50: 5.33 nM and 5.3 nM
hTA1; read-out: Emax values (Mean), WT hTA1, β-PEA = 100, each line an independent experiment, 3 replicates
  Emax: 105%
hTA1; wt hTA1, relative to β-PEA
  Emax: 103%
hTA1; WT hTA1, β-PEA = 100, each line an independent experiment, 3 replicates
  Emax values, Mean: 101.582
hTA1; WT, average of the experiments, β-PEA = 100
  Emax values, Avg: 103.3
hTA1; WT, average of the two experiments
  Emax values, Avg: 103.3
hTA1; WT, mean of each independent experiment (3 replicates), β-PEA = 100
  Emax values, Mean: 105.026 and 101.582
hTA1; WT, single experiments (3 replicates each), β-PEA = 100
  Emax values, Mean: 105.026 and 101.582
hTA1; pEC50 values (Mean), WT hTA1, each line an independent experiment, 3 replicates, Figure 2B source data
  EC50: 4.28 nM and 6.65 nM
hTA1; pEC50 ± SEM, wt hTA1, HEK293T, n=3
  EC50: 5.37 nM
